Results from patent US8071591B2, “7-cycloalkylaminoquinolones as GSK-3 inhibitors” (Kyorin Pharmaceutical Co., Ltd., priority 2009, dated 2011).

Columns and labels:
[1] = system: HepG2 cells; assay: GS activation: [3H]glucose incorporation into glycogen in HepG2 cells; assay type: cell-based; details: Homo sapiens, 3 hrs incubation with D-[2-3H]glucose, serum-free low-glucose DMEM, read-out: EC50 for glycogen synthesis
Description: HepG2 cells were obtained from the Japanese Collection of Research Bioresources and were grown in standard culture medium, a low-glucose Dulbecco's modified Eagle's medium (DMEM) containing 10% fetal calf serum supplemented with 100 U/mL penicillin and 100 μg/mL streptomycin, in a humidified and 5% CO2 atmosphere kept at 37° C. The HepG2 cells were harvested with 0.25% trypsin solution containing 1 mM EDTA, and were seeded on 12 well plates at 1×10^5 cells per well. Following a culture for 3 days, the cells were washed once with phosphate buffered saline (PBS), and were incubated with serum-free low-glucose DMEM supplemented with 100 U/mL penicillin and 100 μg/mL streptomycin. Following a culture for 3 hrs, GSK-3 inhibitor at various concentration and 2.5 μCi/mL D-[2-^3H]glucose (New England Nuclear, Boston, Mass., USA) were added to the serum-free low-glucose DMEM. A vehicle control of DMSO (0.3%, final concentration) was also used. Total volume per well of the reaction medium was 1.0 mL of serum-free low-glucose DMEM. After incubation at 37° C. for 3 hrs, medium was aspirated and cells were washed twice with PBS, and were added 0.25 mL of 1 N KOH containing 0.4 mg/mL carrier glycogen. […] [^3H]Glucose incorporation into glycogen was assessed using a liquid scintillation counter (Packard Instrument Co., Meriden, Conn., USA).

[2] = system: Male Crlj:CD1 (ICR) mice; assay: Glucose tolerance study in fasted ICR mice; assay type: in vivo; details: 10 mg/kg orally, 30 minutes before oral glucose load (5 g/kg), fasted 7-week-old ICR mice
Description: Male Crlj:CD1 (ICR) mice were obtained from Charles River Laboratories Japan (Yokohama, Japan). All mice were given a standard diet (Clea Japan, Tokyo, Japan) and tap water ad libitum. All institutional guidelines for animal care and use were applied in this study. Test compounds were suspended in 0.3% carbozymethyl-cellulose sodium salt (CMC-Na; Sigma, St. Louis, Mo.). After fasting for 15-17 hours, the test compound (3, 10, 30, 100 or 300 mg/kg) or vehicle (0.3% CMC-Na) was orally administered to 7-week-old ICR mice. Glucose solution (5 g/kg) was orally administered at 30 minutes after test compound treatment. Blood samples were collected from tail vein using capillary tubes containing EDTA-2K before test compound treatment, and at 0, 0.5, 1, and 2 hours after glucose load. The blood samples were centrifuged at 2,500×g for 5 minutes and separated plasma was kept on ice and analyze in the same day. Plasma glucose levels were determined using the glucose CII-test (Wako Pure Chemical Industries, Osaka, Japan). The sum of plasma glucose levels at 0.5 and 1 hr after glucose load was compared to that of vehicle treatment, and results were presented as percent decrease.

EC50 [1] [nM] | Structure (SMILES) | percent decrease of the sum of plasma glucose levels at 0.5 and 1 hr after glucose load vs vehicle [2] [%]
≤ 300 | C[C@H]1COc2c(NC3CCCC(c4cccnc4)C3)c(F)c(N)c3c(=O)c(C#N)cn1c23 (stereo in doubt) [Example 9, (3S)-8-amino-9-fluoro-2,3-dihydro-3-methyl-7-oxo-10-[trans-3-(3-pyridyl)cyclohexylamino]-7H-pyrido[1,2,3-de][1,4]benzoxazine-6-carbonitrile] | 
≤ 300 | C[C@H]1COc2c(N[C@H]3CC[C@H](c4cccnc4)CC3)c(F)c(N)c3c(=O)c(C#N)cn1c23 [Example 7, (3S)-8-amino-9-fluoro-2,3-dihydro-3-methyl-7-oxo-10-[trans-4-(3-pyridyl)cyclohexylamino]-7H-pyrido[1,2,3-de][1,4]benzoxazine-6-carbonitrile] | 
 | C[C@H]1COc2c(N[C@@H]3CC[C@@H](c4ccccn4)C3)c(F)c(N)c3c(=O)c(C#N)cn1c23 [Example 2, (3S)-8-amino-9-fluoro-2,3-dihydro-3-methyl-7-oxo-10-[(1R,3R)-3-(2-pyridyl)cyclopentylamino]-7H-pyrido[1,2,3-de][1,4]benzoxazine-6-carbonitrile] | 22
